# Measurements from US20250019385A1, “SPIROCYCLIC ANNULATED 2-AMINO-3-CYANO THIOPHENES AND DERIVATIVES FOR THE TREATMENT OF CANCER” (Boehringer Ingelheim International GmbH, priority 2023, published 2025).
# Test system: Ba/F3 cells KRAS G12C
# Assay: Ba/F3 proliferation assay (KRAS G12C)
# Assay type: cell-based
# Conditions: Mus musculus, BaF3, 72 h, AlamarBlue viability
# Procedure: (§1) Ba/F3 cells are ordered from DSMZ (ACC300, Lot17) and grown in RPMI-1640 (ATCC 30-2001)+10% FCS+10 ng/mL IL-3 at 37° C. in 5% […] atmosphere. Plasmids containing KRASG12 mutants (i.e. […], G12C, G12V) are obtained from GeneScript. To generate KRASG12-dependent Ba/F3 models, Ba/F3 cells are transduced with retroviruses containing vectors that harbor KRASG12 isoforms. Platinum-E cells (Cell Biolabs) are used for retrovirus packaging. Retrovirus is added to Ba/F3 cells. To ensure infection, 4 μg/mL polybrene is added and cells are spinfected. Infection efficiency is confirmed by measuring GFP-positive cells using a cell analyzer. Cells with an infection efficiency of 10% to 20% are further cultivated and puromycin selection with 1 μg/mL is initiated. As a control, parental Ba/F3 cells are used to show selection status. Selection is considered successful when parental Ba/F3 cells cultures died. To evaluate the transforming potential of KRASG12 mutations, the growth medium is no longer supplemented with IL-3. Ba/F3 cells harboring the empty vector are used as a control. Approximately ten days before conducting the experiments, puromycin is left out.
# (§2) For proliferation assays, Ba/F3 cells are seeded into 384-well plates at 1.5×1 (M cells/60 μL in growth media (RPMI-1640+10% FCS). Compounds (10 mM stock in DMSO) are added at logarithmic dose series using the ECHO acoustic liquid handler system (Beckman Coulter), normalizing for added DMSO and including DMSO controls. All compound treatments are performed in technical duplicates. For the TO time point measurement, untreated cells are analyzed at the time of compound addition. Treated cells are incubated for 72 h at 37° C. with 5% CO2 and cell viability is measured in the PerkinElmer Envision Multimode Reader using AlamarBlue™ (ThermoFisher) viability stain. Viability (stated as percent of control) is defined as relative fluorescence units RFU of each well divided by the RFU of cells in DMSO controls. IC50 values are determined from viability measurements by non-linear regression using a four-parameter model.
row,Compound,IC50 [nM]
1,CO[C@@H]1C[C@@H]([C@H](C)Oc2nc(-c3onc4c3CCC[C@@]43CCCc4sc(N)c(C#N)c43)nc3c2CN(C2COC2)C[C@]32CCOC2)N(C)C1 [I-58],4
2,C[C@H](Oc1nc(-c2noc3c2CCC[C@@]32CCCc3sc(N)c(C#N)c32)nc2c1COC[C@@]21CCOC1)[C@@H]1CCCN1C [II-9a],84
3,C[C@H](Oc1nc(-c2onc3c2CCC[C@@]32CCCc3sc(N)c(C#N)c32)nc2c1CN(C1COC1)C[C@]21CCOC1)[C@@H]1CC[C@H](C)N1C [I-55],3
4,COCCn1c(=O)n(C)c2c(O[C@@H](C)[C@@H]3CCCN3C)nc(-c3onc4c3CCC[C@@]43CCCc4sc(N)c(C#N)c43)nc21 [I-7],99
5,C[C@H](Oc1nc(-c2onc3c2CCC[C@@]32CCCc3sc(N)c(C#N)c32)nc2c1n(C)c(=O)n2C1COC1)[C@@H]1CCCN1C [I-24],59
6,CO[C@H]1C[C@@H]([C@H](C)Oc2nc(-c3onc4c3CCC[C@@]43CCCc4sc(N)c(C#N)c43)nc3c2n(C)c(=O)n3[C@@H]2CCOC2)N(C)C1 [I-2],41
7,C[C@H](Oc1nc(-c2onc3c2CCC[C@@]32CCCc3sc(N)c(C#N)c32)nc2c1n(C)c(=O)n2[C@H]1CO[C@@H](C)C1)[C@@H]1CC[C@H](C)N1C [I-50],3

# Test system: Ba/F3 cells KRAS G12V
# Assay: Ba/F3 proliferation assay (KRAS G12V)
# Assay type: cell-based
# Conditions: Mus musculus, BaF3, 72 h, AlamarBlue viability
# Procedure: as §1, §2
row,Compound,IC50 [nM]
1,CO[C@@H]1C[C@@H]([C@H](C)Oc2nc(-c3onc4c3CCC[C@@]43CCCc4sc(N)c(C#N)c43)nc3c2CN(C2COC2)C[C@]32CCOC2)N(C)C1 [I-58],2
2,C[C@H](Oc1nc(-c2noc3c2CCC[C@@]32CCCc3sc(N)c(C#N)c32)nc2c1COC[C@@]21CCOC1)[C@@H]1CCCN1C [II-9a],28
3,C[C@H](Oc1nc(-c2onc3c2CCC[C@@]32CCCc3sc(N)c(C#N)c32)nc2c1CN(C1COC1)C[C@]21CCOC1)[C@@H]1CC[C@H](C)N1C [I-55],1
4,COCCn1c(=O)n(C)c2c(O[C@@H](C)[C@@H]3CCCN3C)nc(-c3onc4c3CCC[C@@]43CCCc4sc(N)c(C#N)c43)nc21 [I-7],46
5,C[C@H](Oc1nc(-c2onc3c2CCC[C@@]32CCCc3sc(N)c(C#N)c32)nc2c1n(C)c(=O)n2C1COC1)[C@@H]1CCCN1C [I-24],26
6,CO[C@H]1C[C@@H]([C@H](C)Oc2nc(-c3onc4c3CCC[C@@]43CCCc4sc(N)c(C#N)c43)nc3c2n(C)c(=O)n3[C@@H]2CCOC2)N(C)C1 [I-2],21
7,C[C@H](Oc1nc(-c2onc3c2CCC[C@@]32CCCc3sc(N)c(C#N)c32)nc2c1n(C)c(=O)n2[C@H]1CO[C@@H](C)C1)[C@@H]1CC[C@H](C)N1C [I-50],1

# Test system: LOVO cells
# Assay: LOVO CTG proliferation assay (120 h) (CRC, G13D)
# Assay type: cell-based
# Conditions: Homo sapiens
# Procedure: LOVO cells (ATCC No. CCL-229) are dispensed into black 384-well plates, flat and clear bottom (Greiner, PNr. 781091) at a density of 1000 cells per well in 60 μl DMEM (Sigma D6429)+10% FCS (fetal calf serum, HyClone, SH30084.03). Cells are incubated overnight at 37° C. in a humidified tissue culture incubator at 5% CO2. Compounds (10 mM stock in DMSO) are added at logarithmic dose series using the ECHO acoustic liquid handler system (Beckman Coulter), normalizing for added DMSO and including DMSO controls. All compound treatments are performed in technical duplicates. For the TO time point measurement, untreated cells are analyzed at the time of compound addition. Plates are incubated for 120 h, and cell viability is measured using CellTiter-Glo luminescent cell viability reagent (Promega product code G7570). Viability (stated as percent of control) is defined as relative luminescence units RLU of each well divided by the RLU of cells in DMSO controls. IC50 values are determined from viability measurements by non-linear regression using a four-parameter model.
# IC50 values of representative compounds according to the invention measured with these assays in the indicated cell lines are presented in Table 46.
row,Compound,IC50 [nM]
1,CO[C@@H]1C[C@@H]([C@H](C)Oc2nc(-c3onc4c3CCC[C@@]43CCCc4sc(N)c(C#N)c43)nc3c2CN(C2COC2)C[C@]32CCOC2)N(C)C1 [I-58],84
2,C[C@H](Oc1nc(-c2noc3c2CCC[C@@]32CCCc3sc(N)c(C#N)c32)nc2c1COC[C@@]21CCOC1)[C@@H]1CCCN1C [II-9a],274
3,C[C@H](Oc1nc(-c2onc3c2CCC[C@@]32CCCc3sc(N)c(C#N)c32)nc2c1CN(C1COC1)C[C@]21CCOC1)[C@@H]1CC[C@H](C)N1C [I-55],26
4,COCCn1c(=O)n(C)c2c(O[C@@H](C)[C@@H]3CCCN3C)nc(-c3onc4c3CCC[C@@]43CCCc4sc(N)c(C#N)c43)nc21 [I-7],563
5,C[C@H](Oc1nc(-c2onc3c2CCC[C@@]32CCCc3sc(N)c(C#N)c32)nc2c1n(C)c(=O)n2C1COC1)[C@@H]1CCCN1C [I-24],235
6,CO[C@H]1C[C@@H]([C@H](C)Oc2nc(-c3onc4c3CCC[C@@]43CCCc4sc(N)c(C#N)c43)nc3c2n(C)c(=O)n3[C@@H]2CCOC2)N(C)C1 [I-2],3

# Test system: not listed separately
# Assay: Plasma protein binding assay (PPB), equilibrium dialysis
# Assay type: in vitro ADME
# Conditions: bovine, 10% FCS in PBS, read-out: PPB 10% FCS (% fu)
# Procedure: Binding of test compounds to plasma was determined using equilibrium dialysis (ED) and quantitative mass spectrometry interfaced with liquid chromatography (LC-MS). In brief, ED was performed with dialysis devices consisting of two chambers separated by a semipermeable membrane with a molecular weight cut-off of 5-10 kg/mol. One chamber was filled with 10% FCS in PBS containing 1-10 μmol/L test compound and the other chamber was filled with phosphate-buffer saline (PBS) with or without dextran. The dialysis chamber was incubated for 3-5 hours at 37° C. After incubation, protein was precipitated from aliquots of each chamber and the concentration of test compound in the supernatant of the plasma-containing compartment (cserum) and of the buffer-containing compartment (cbuffer) was determined by LC-MS. The fraction of unbound test compound (not bound to plasma) (f) was calculated according to the following equation: […]
row,Compound,fraction unbound
1,CO[C@@H]1C[C@@H]([C@H](C)Oc2nc(-c3onc4c3CCC[C@@]43CCCc4sc(N)c(C#N)c43)nc3c2CN(C2COC2)C[C@]32CCOC2)N(C)C1 [I-58],0.24
2,C[C@H](Oc1nc(-c2noc3c2CCC[C@@]32CCCc3sc(N)c(C#N)c32)nc2c1COC[C@@]21CCOC1)[C@@H]1CCCN1C [II-9a],0.07
3,C[C@H](Oc1nc(-c2onc3c2CCC[C@@]32CCCc3sc(N)c(C#N)c32)nc2c1CN(C1COC1)C[C@]21CCOC1)[C@@H]1CC[C@H](C)N1C [I-55],0.2
4,COCCn1c(=O)n(C)c2c(O[C@@H](C)[C@@H]3CCCN3C)nc(-c3onc4c3CCC[C@@]43CCCc4sc(N)c(C#N)c43)nc21 [I-7],0.24
5,C[C@H](Oc1nc(-c2onc3c2CCC[C@@]32CCCc3sc(N)c(C#N)c32)nc2c1n(C)c(=O)n2C1COC1)[C@@H]1CCCN1C [I-24],0.18
6,CO[C@H]1C[C@@H]([C@H](C)Oc2nc(-c3onc4c3CCC[C@@]43CCCc4sc(N)c(C#N)c43)nc3c2n(C)c(=O)n3[C@@H]2CCOC2)N(C)C1 [I-2],0.15
7,C[C@H](Oc1nc(-c2onc3c2CCC[C@@]32CCCc3sc(N)c(C#N)c32)nc2c1n(C)c(=O)n2[C@H]1CO[C@@H](C)C1)[C@@H]1CC[C@H](C)N1C [I-50],0.09
